According to publication PMC12790360, “Characterization of Non‐Specific Electrostatic Interactions of Cationic Peptides with DNA Origami and Their Functional Consequences” (Small Methods, 2025):
Ends that are not written are not given here. Peptide text beside a SMILES is read from it.

The compounds below were run on ssDNA (assay: Centrifugation-based pull-down (solubility) assay). Conditions: not given.
Format: physicochemical
Method: Next, to quantify the propensity of these peptides to induce the aggregation, we developed a centrifugation‐based pull‐down assay (Figure 1e). In this assay, the cationic peptide pulls down the interacting BCN‐free ssDNA, forming large macromolecular aggregates that are sedimented as a pellet. The amount of ssDNA remaining in the soluble supernatant is then determined by measuring its absorbance at 260 nm.^[ [40], [41] ^] […] The soluble fraction for both peptides increased as the NaCl concentration was raised, confirming that the aggregation is driven by electrostatic interactions. […] To determine the soluble fraction of ssDNA after mixing with peptides, the mixtures were prepared as described above and then centrifuged at 16 000 × g for 5 min at room temperature. The supernatants were carefully collected, and the ssDNA concentration was measured by absorbance at 260 nm (OD260) on a NanoDrop spectrophotometer. The soluble fraction was calculated as OD260,supernatant/OD260,initial, where OD260,initial corresponds to the absorbance of the ssDNA reference solution (0.07 mM in 1× TE buffer without peptide or salt).

| Compound | Soluble ssDNA fraction in supernatant after centrifugation with peptide |
| --- | --- |
| EQLESIINFEKLTEWT [AP2] | highly soluble across all conditions |
| ISQAVHAAHAEINEAGR [AP3] | weaker aggregation tendencies compared with CP1 and CP2 |

Same assay, conditions: BCN-free ssDNA 0.07 mM in 1x TE, tenfold molar excess peptide, varying NaCl, 16 000 x g 5 min room temperature, OD260 supernatant/initial, n = 3

| Compound | Soluble ssDNA fraction in supernatant after centrifugation with peptide |
| --- | --- |
| CC[C@H](C)[C@H](NC(=O)[C@H](CCCCN)NC(=O)[C@H](CCC(N)=O)NC(=O)[C@H](CC(N)=O)NC(=O)[C@H](CS)NC(=O)[C@H](C)NC(=O)[C@H](C)NC(=O)CNC(=O)[C@H](CCCNC(=N)N)NC(=O)[C@H](Cc1c[nH]c2ccccc12)NC(=O)CNC(=O)[C@@H]1CCCN1C(=O)[C@H](CCCNC(=N)N)NC(=O)[C@@H](N)CS)C(=O)N[C@@H](CC(C)C)C(=O)O [CP4] (H-CRPGWRGAACNQKIL-OH) | highly soluble across all conditions |
| CC[C@H](C)[C@H](NC(=O)[C@@H](NC(=O)[C@H](CC(C)C)NC(=O)[C@H](CO)NC(=O)[C@H](Cc1c[nH]cn1)NC(=O)[C@@H](NC(=O)[C@@H](NC(=O)CNC(=O)[C@H](Cc1c[nH]cn1)NC(=O)[C@H](CCCNC(=N)N)NC(=O)[C@H](CCCNC(=N)N)NC(=O)[C@H](CCSC)NC(=O)[C@H](CCC(=O)O)NC(=O)[C@H](Cc1ccc(O)cc1)NC(=O)[C@H](CCCCN)NC(=O)[C@H](CC(N)=O)NC(=O)CNC(=O)[C@@H]1CCCN1C(=O)[C@H](CS)NC(=O)[C@H](CC(C)C)NC(=O)[C@H](CCC(=O)O)NC(=O)[C@@H](NC(=O)CNC(=O)[C@H](CCC(=O)O)NC(=O)[C@@H](N)CCCNC(=N)N)C(C)C)[C@@H](C)O)[C@@H](C)O)C(C)C)C(=O)N[C@@H](Cc1c[nH]cn1)C(=O)N[C@@H](CC(=O)O)C(=O)O [NP1] | weaker aggregation tendencies compared with CP1 and CP2 |
| GGGSEEEYRSRKYSSWYVALKR [CP2] | salt‐dependent solubility |
| KLTWQELYQLKYKGI [CP6] | weaker aggregation tendencies compared with CP1 and CP2 |
| PKKKR [CP5, brain-derived neurotrophic factor (BDNF) mimic peptide, cyclic, cationic, net charge +3] | weaker aggregation tendencies compared with CP1 and CP2 |
| RGIDKRHWNSQ [CP3] | weaker aggregation tendencies compared with CP1 and CP2 |
| SSSHPIFHRGEFSV [NP5] | weaker aggregation tendencies compared with CP1 and CP2 |
| YRSRKYSSWYVALKR [CP1] | salt‐dependent solubility |
